Species on record: Rattus norvegicus
Assay: Open TG-GATES - Regimen: Single
Assay type: toxicity, organism-based, Sprague-Dawley
Design: regimen Single, gender Male, age 6 weeks
Settings: in vivo, iv, route intravenous injection; for APTT / Bas / Eos / Fbg / Hb / Ht / Lym / MCH / MCHC / MCV / Mono / Neu / Plat / RBC / Ret / WBC / PT: tissue Blood; for KIDNEY_L / KIDNEY_R / KIDNEY_TOTAL: tissue Kidney; for LIVER: tissue Liver
[1] = 1 mg/kg, 9 h, dose level Middle
[2] = 1 mg/kg, 9 h, tissue Plasma, dose level Middle
[3] = 1 mg/kg, 24 h, dose level Middle
[4] = 1 mg/kg, 24 h, tissue Plasma, dose level Middle
[5] = 3 mg/kg, 3 h, tissue Plasma, dose level High

For CISPLATIN, the TERMINAL_BW [1] was 214.2 g, the APTT [1] was 23.6 s and the Bas [1] was 0%. It also gave an Eos [1] of 0.4%, a Fbg [1] of 267.8 mg/dL and a Hb [1] of 12.7 g/dL. It also gave a Ht [1] of 39.1%, a Lym [1] of 81.8% and an MCH [1] of 20.6 pg. The MCHC [1] was 32.4%, the MCV [1] was 63.7 fL and the Mono [1] was 2.2%. The Neu [1] was 15%, the Plat [1] was 132.5 x10_4/uL and the RBC [1] was 613.6 x10_4/ul. It also gave a Ret [1] of 6.7%, a WBC [1] of 93.8 x10_2/uL and a KIDNEY_L [1] of 1 g. For the same sequence, the KIDNEY_R [1] was 1 g, the KIDNEY_TOTAL [1] was 2 g and the LIVER [1] was 9 g. For the same sequence, the ALP [2] was 1312 IU/L, the ALT [2] was 39.2 IU/L and the AST [2] was 73 IU/L. For the same sequence, the CRE [2] was 0.1 mg/dL, the Ca [2] was 11 mg/dL and the DBIL [2] was 0 mg/dL. For the same sequence, the GLC [2] was 179.2 mg/dL, the IP [2] was 9.9 mg/dL and the K [2] was 4.2 meq/L. The Na [2] was 139.6 meq/L, the PL [2] was 120.6 mg/dL and the RALB [2] was 2.9 g/dL. The TBIL [2] was 0.028 mg/dL, the TC [2] was 67 mg/dL and the TG [2] was 51.8 mg/dL. For the same sequence, the TP [2] was 5.3 g/dL, the gamma-GTP [2] was 1.4 IU/L and the TERMINAL_BW [3] was 213.8 g. For the same sequence, the Bas [3] was 0%, the Eos [3] was 0.8% and the Fbg [3] was 329 mg/dL. For the same sequence, the MCH [3] was 21 pg, the MCHC [3] was 32.9% and the MCV [3] was 63.9 fL. For the same sequence, the Mono [3] was 3%, the Neu [3] was 16% and the PT [3] was 16 s. For the same sequence, the Plat [3] was 128.4 x10_4/uL, the RBC [3] was 631.8 x10_4/ul and the Ret [3] was 5.2%. For the same sequence, the WBC [3] was 100.8 x10_2/uL, the KIDNEY_L [3] was 1 g and the KIDNEY_R [3] was 1 g. It also gave a KIDNEY_TOTAL [3] of 2.1 g, an ALT [4] of 46 IU/L and a BUN [4] of 15.4 mg/dL. It also gave a CRE [4] of 0.2 mg/dL, a DBIL [4] of 0 mg/dL and a GLC [4] of 183.2 mg/dL. For the same sequence, the IP [4] was 7.7 mg/dL, the K [4] was 4.4 meq/L and the LDH [4] was 163.4 IU/L. For the same sequence, the PL [4] was 143.6 mg/dL, the RALB [4] was 3.1 g/dL and the TBIL [4] was 0.014 mg/dL. It also gave a TC [4] of 78.6 mg/dL, a TG [4] of 85.8 mg/dL and a TP [4] of 5.7 g/dL. The gamma-GTP [4] was 1.6 IU/L, the TERMINAL_BW (3 mg/kg, 3 h, dose level High) was 219.6 g and the APTT (3 mg/kg, 3 h, dose level High) was 22.3 s. The Bas (3 mg/kg, 3 h, dose level High) was 0%, the Eos (3 mg/kg, 3 h, dose level High) was 1% and the Fbg (3 mg/kg, 3 h, dose level High) was 271 mg/dL. It also gave a Hb (3 mg/kg, 3 h, dose level High) of 12.7 g/dL, a Ht (3 mg/kg, 3 h, dose level High) of 39% and a Lym (3 mg/kg, 3 h, dose level High) of 78.4%. It also gave an MCV (3 mg/kg, 3 h, dose level High) of 65.3 fL, a Mono (3 mg/kg, 3 h, dose level High) of 2.8% and a PT (3 mg/kg, 3 h, dose level High) of 15.9 s. The Plat (3 mg/kg, 3 h, dose level High) was 130.5 x10_4/uL, the RBC (3 mg/kg, 3 h, dose level High) was 596.8 x10_4/ul and the Ret (3 mg/kg, 3 h, dose level High) was 6.7%. It also gave a WBC (3 mg/kg, 3 h, dose level High) of 97.6 x10_2/uL, a KIDNEY_L (3 mg/kg, 3 h, dose level High) of 1 g and a KIDNEY_R (3 mg/kg, 3 h, dose level High) of 1 g. It also gave a KIDNEY_TOTAL (3 mg/kg, 3 h, dose level High) of 1.9 g, an LIVER (3 mg/kg, 3 h, dose level High) of 9.7 g and an ALP [5] of 1622.8 IU/L. The ALT [5] was 43.4 IU/L, the AST [5] was 80.6 IU/L and the CRE [5] was 0.2 mg/dL. It also gave a DBIL [5] of 0 mg/dL, a GLC [5] of 177.6 mg/dL and an IP [5] of 9 mg/dL. For the same sequence, the K [5] was 4.2 meq/L, the LDH [5] was 166.2 IU/L and the Na [5] was 139.4 meq/L. The PL [5] was 115 mg/dL, the RALB [5] was 2.8 g/dL and the TBIL [5] was 0.026 mg/dL. It also gave a TC [5] of 64.8 mg/dL, a TG [5] of 63.6 mg/dL and a TP [5] of 5.2 g/dL. For the same sequence, the gamma-GTP [5] was 1.6 IU/L and the TERMINAL_BW (3 mg/kg, 6 h, dose level High) was 210.6 g.

From ChEMBL document CHEMBL3885861, “Open TG-GATES”
